According to patent publication US10342796B2, “Acrylanilide derivative, preparation method, and applications thereof in pharmacy” (Ancureall Pharmaceutical (Shanghai) Co., Ltd., priority 2015, dated 2019):
Where two headings read alike, the source gives them in different places.

Assays:
Test in all cases: Growth inhibition GI50 in vitro (CCK8/MTT, 72 h)
AU565 (Her2 amp) = assay type: cell-based, human; details: Homo sapiens
H1975 (EGFR L858R/T790M) = assay type: cell-based, human; details: Homo sapiens, NCI-H1975
HCC827 (EGFR dE746-A750) = assay type: cell-based, human; details: Homo sapiens
PC-9 (EGFR dE746-A750) = assay type: cell-based, human; details: Homo sapiens
A549 (EGFR WT) = assay type: cell-based, human; details: Homo sapiens
[1] = test system: A431 (EGFR WT, amplification and high expression); assay type: cell-based, human; details: Homo sapiens, A-431
[2] = test system: H1299 (EGFR wt, Nras Q61K); assay type: cell-based, human; details: Homo sapiens, NCI-H1299
[3] = test system: H460 (EGFR wt, Kras G61H); assay type: cell-based, human; details: Homo sapiens, NCI-H460
SK-BR-3 (Her2 amp) = assay type: cell-based, human; details: Homo sapiens
H292 (EGFR WT) = assay type: cell-based; details: Homo sapiens, NCI-H292
Calu-3 (Her2 amp) = assay type: cell-based; details: Homo sapiens
N87 (HER2 Amp) = assay type: cell-based, human; details: Homo sapiens
[4] = test system: PC-9ER (EGFR delE746-A750/T790M); assay type: cell-based, human; details: Homo sapiens, PC-9/ER; EGFR mutant cell line; range of GI50; read-out: GI50 PC9ER
[5] = AU565, EGFR wt, Her2 amp, read-out: GI50
[6] = H1975, EGFR L858R/T790M, read-out: GI50
[7] = Table 15, 1000 nM to 0.03 nM serial dilution, read-out: GI50 H1975 (EGFR L858R/T790M)
[8] = HCC827, EGFR dE746-A750, read-out: GI50
[9] = PC-9, EGFR dE746-A750, read-out: GI50
[10] = Table 15, 1000 nM to 0.03 nM serial dilution, read-out: GI50 PC-9 (EGFR dE746-A750)
[11] = A549, Table 15, 1000 nM to 0.03 nM serial dilution, read-out: GI50 A549 (EGFR WT)
[12] = A549, EGFR wt, Kras G12S, read-out: GI50
[13] = H1299, EGFR wt, Nras Q61K, read-out: GI50
[14] = H460, EGFR wt, Kras G61H, read-out: GI50
[15] = Table 15, 1000 nM to 0.03 nM serial dilution, read-out: GI50 H292 (EGFR WT)
[16] = Calu-3, Table 16, 1000 nM to 0.03 nM serial dilution, read-out: GI50 Calu3 (HER2 amp)
[17] = Calu-3, EGFR wt, Her2 amp, read-out: GI50
[18] = N87, EGFR wt, Her2 amp, read-out: GI50
[19] = Table 16, 1000 nM to 0.03 nM serial dilution, read-out: GI50 N87 (HER2 amp)
[20] = AU565, HER2 positive cell line, range of GI50, read-out: GI50 AU-565
[21] = EGFR mutant cell line, range of GI50, read-out: GI50 H1975
[22] = HCC827, EGFR mutant cell line, range of GI50, read-out: GI50 HCC827
[23] = EGFR mutant cell line, range of GI50, read-out: GI50 PC-9
[24] = A549, EGFR wild type cell line, range of GI50, read-out: GI50 A549
[25] = EGFR wild type cell line, range of GI50, read-out: GI50 A431
[26] = EGFR wild type cell line, range of GI50, read-out: GI50 H1299
[27] = EGFR wild type cell line, range of GI50, read-out: GI50 H460
[28] = SK-BR-3, HER2 positive cell line, range of GI50, read-out: GI50 SK-BR-3
[29] = SK-BR-3, EGFR wt, Her2 amp, read-out: GI50
[30] = HER2 positive cell line, range of GI50, read-out: GI50 N87

Compound | GI50 (AU565 (Her2 amp); [5]) [nM] | GI50 (H1975 (EGFR L858R/T790M); [6]) [nM] | GI50 (HCC827 (EGFR dE746-A750); [8]) [nM] | GI50 (PC-9 (EGFR dE746-A750); [9]) [nM] | GI50 (A549 (EGFR WT); [12]) [nM] | GI50 ([1]; A431, EGFR wt, read-out: GI50) [nM] | GI50 [2, 13] [nM] | GI50 [3, 14] [nM] | GI50 (H292 (EGFR WT); H292, EGFR wt, read-out: GI50) [nM] | GI50 (Calu-3 (Her2 amp); [17]) [nM] | GI50 (N87 (HER2 Amp); [18]) [nM] | GI50 (AU565 (Her2 amp); [20]) [nM] | GI50 (H1975 (EGFR L858R/T790M); [21]) [nM] | GI50 (HCC827 (EGFR dE746-A750); [22]) [nM] | GI50 [4] [nM] | GI50 (PC-9 (EGFR dE746-A750); [23]) [nM] | GI50 [1, 25] [nM] | GI50 (SK-BR-3 (Her2 amp); [28]) [nM] | GI50 (SK-BR-3 (Her2 amp); [29]) [nM] | GI50 (N87 (HER2 Amp); [30]) [nM] | also measured
C=CC(=O)Nc1cc(Nc2nccc(-c3cn(C)c4ccccc34)n2)c(OC)cc1N(C)CCN(C)C [AZD9291, reference compound] | 312 | 15.6 | 15.6 | 13.9 | > 1000 | […] | > 1000 | > 1000 | > 1000 | 686 | 234 |  |  |  |  |  |  |  |  |  | GI50 (H1975 (EGFR L858R/T790M); [7]): 15.6 nM; GI50 (PC-9 (EGFR dE746-A750); [10]): 13.9 nM; GI50 (A549 (EGFR WT); [11]): > 1000 nM; GI50 (SK-BR-3 (Her2 amp); SK-BR-3): 643 nM; GI50 (H292 (EGFR WT); [15]): > 1000 nM; GI50 (Calu-3 (Her2 amp); [16]): 657 nM; GI50 (N87 (HER2 Amp); [19]): 219 nM
C=CC(=O)Nc1cc(Nc2nccc(Nc3cccc(Cl)c3)n2)c(OC)cc1N(C)CCN(C)C [Compound 2, N-(5-(4-(3-chloro-phenylamino)-pyrimidin-2-ylamino)-2-(2-(dimethylamino-ethyl)-methyl-amino)-4-methoxyl-phenyl)-acrylamide] | 15.4 | 14.6 | 2.3 | 5.4 | > 1000 | 156 | > 1000 | > 1000 | > 1000 | 31.2 | 10 | 10 to 100 | 10 to 100 | < 10 | < 10 | < 10 | 100 to 1000 | 10 to 100 | 19.5 | < 10 | GI50 (A549 (EGFR WT); [24]): > 1000 nM; GI50 [2, 26]: > 1000 nM; GI50 [3, 27]: > 1000 nM
C=CC(=O)Nc1cc(Nc2nccc(Nc3ccc(OCc4ccccn4)c(Cl)c3)n2)c(OC)cc1N(C)CCN(C)C [Compound 18, N-(5-(4-(3-chloro-4-(pyridin-2-methoxyl)phenylamino)pyrimidin-2-ylamino)-2-((2-(dimethylamino)ethyl)(methyl)amino)-4-methoxyl-phenyl)-acrylamide] | 15.6 | 14.6 | 9.4 | 14.5 | > 1000 | 438 | > 1000 | > 1000 | > 1000 | 23.4 | 19.5 | 10 to 100 | 10 to 100 | 10 to 100 | < 10 | 10 to 100 | 100 to 1000 | 10 to 100 | 39.1 | 10 to 100 | GI50 (A549 (EGFR WT); [24]): > 1000 nM; GI50 [2, 26]: > 1000 nM; GI50 [3, 27]: > 1000 nM
C=CC(=O)Nc1cc(Nc2ncc(Cl)c(Nc3ccc(OCc4ccccn4)c(Cl)c3)n2)c(OC)cc1N(C)CCN(C)C [Compound 19, N-(5-(5-chloro-4-(3-chloro-4-(pyridin-2-methoxyl)phenylamino)-pyrimidin-2-ylamino)-2-((2-(dimethylamino)ethyl)(methyl)amino)-4-methoxyl-phenyl)-acrylamide] | 17.5 | 4.9 | 6.4 | 7.3 | 978 | 625 | > 1000 | > 1000 | > 1000 | 19.5 | 19.5 | 10 to 100 | < 10 | < 10 | < 10 | < 10 | 100 to 1000 | 10 to 100 | 39.1 | 10 to 100 | GI50 (A549 (EGFR WT); [24]): > 1000 nM; GI50 [2, 26]: > 1000 nM; GI50 [3, 27]: > 1000 nM
C=CC(=O)Nc1cc(Nc2ncnc(Nc3cccc(Br)c3)n2)c(OC)cc1N1CCC(N2CCCC2)CC1 [Compound 118] | 4.8 | 9.4 | 2.3 | 2.38 |  | 156 |  |  | > 1000 | 14.6 | 4.8 | < 10 | < 10 | < 10 | < 10 | < 10 | 100 to 1000 | 10 to 100 | 29.2 | < 10 | 
C=CC(=O)Nc1cc(Nc2cc(Nc3cc(F)c(OC)c(Cl)c3)ncn2)c(OC)cc1N(C)CCN(C)C [Compound 236, N-(5-(6-(3-chloro-5-fluoro-4-methoxyphenylamino)-pyrimidin-4-yl-amino)-2-((2-dimethylamino-ethyl)-methyl-amino)-4-methoxyl-phenyl)-acrylamide] |  |  |  |  |  |  |  |  |  |  |  |  |  |  |  |  |  |  |  |  | GI50 (H1975 (EGFR L858R/T790M); Table 13, 72 h, read-out: Range of GI50 H1975 (EGFR L858R/T790M)): < 10 nM; GI50 (H1975 (EGFR L858R/T790M); [7]): 3.88 nM; GI50 (PC-9 (EGFR dE746-A750); Table 13, 72 h, read-out: Range of GI50 PC-9 (EGFR dE746-A750)): < 10 nM; GI50 (PC-9 (EGFR dE746-A750); [10]): 1.49 nM; GI50 (A549 (EGFR WT); A549, Table 13, 72 h, read-out: Range of GI50 A549 (EGFR WT)): > 1000 nM; GI50 (A549 (EGFR WT); [11]): > 1000 nM; GI50 (H292 (EGFR WT); [15]): > 1000 nM; GI50 (Calu-3 (Her2 amp); [16]): 1.46 nM; GI50 (N87 (HER2 Amp); Table 13, 72 h, read-out: Range of GI50 N87 (HER2 Amp)): < 10 nM; GI50 (N87 (HER2 Amp); [19]): 0.82 nM
